Data published in patent publication US20070179143A1 (priority 2003, published 2007).

Experiments:
[1] = Body weight change of NCI-H460 xenografted nude mice; assay type: in vivo, BALB/c nude mouse
A549 = assay: Cytotoxicity test to cancer cell lines (SRB method), A549; details: Homo sapiens, A549, 48 h, read-out: Cytotoxicity ED50 A549
Protocol: (§4) Cytotoxicity to A549 (Korea Research Institute of Chemical Technology), SK-OV-3 (Korea Research Institute of Chemical Technology), SK-MEL-2 (Korea Research Institute of Chemical Technology), HCT-15 (Korea Research Institute of Chemical Technology) and MCF7 (Korean Cell Line Bank, Seoul National University School of medicine) cells was measured by Sulforhodamin-B (SRB) method (1989, National Cancer Institute (NCI)) which was developed for the measurement of in vitro anticancer activity of a drug. Cells were separated using 0.25% trypsin-EDTA solution, leading to the preparation of a cell suspension by 5×10^318 2×10^4 cells/well. Then, the suspension was distributed into a 96 well plate by 100 μl/well, which was cultured in a 37° C., 5% CO2 incubator for 24 hours. Compounds prepared in examples of the present invention were used as a sample. Precisely, the compound was dissolved in dimethylsulfoxide and diluted with RPMI 1640 medium before being used as a sample. The final concentration of the sample used varied ranging 1 μM˜0.00001 μM. The medium was removed from the 96 well plate and then diluted sample solution was added by 100 μl/well, followed by further culture in a 37° C., 5% CO2 incubator for 48 hours. Tz (time zero) plate was collected from the point of adding the sample. Upon completing the culture, the medium was removed from each well along with Tz plate, then 10% trichloroacetic acid (TCA) was added by 100 μl/well. The plate was left at 4° C. for 1 hour to let cells be fixed on the floor of the plate. After cells were fixed completely, the plate was washed with water 5-6 times to remove the remaining trichloroacetic acid solution completely and moisture was completely dried at room temperature. 0.4% Sulforhodamine-B was dissolved in 1% acetic acid solution to prepare a staining solution. Cells were stained for 30 minutes with a dye added by 100 μl to each well of the completely dried plate. Then, the plate was washed with 1% acetic acid solution 5-6 times to remove sulforhodamine-B remained uncombined with cells. Then, the plate was dried at room temperature. 10 mM Tris solution was added by 100 μ/well thereto to dissolve the dye, and optical density (OD) was measured at 520 nm with a micro plate reader.
(§5) ED50 (concentration that inhibits cancer cell growth 50%, 5.0% effective dose, nM/ml) of the sample to cancer cell was calculated as follows. OD value at the point of beginning the culture with the sample was determined as Tz (time zero) value. OD value of a well to be cultured without the sample was determined as a control value (C). OD value of a well pretreated with the sample was determined as experimental value (T). After calculating Tz, C and T, cytotoxicity of the sample was measured by the below <Mathematical Formula 1>. T≦Tz, (T−Tz)/(C−Tz)×100 T>Tz, (T−Tz)/Tz×10,0 <Mathematical Formula 1>
(§6) ED50, the concentration that can inhibit cancer cell growth by 50%, was calculated by using a regression analysis of lotus program based on the degree of cytotoxicity obtained by the <Mathematical Formula 1>.

in vivo = details: both, ICR, mouse, in vivo
Protocol: (§1) 5-week-old ICR mice having the weight of 25-35 g (SPF, SLC Co. Japan) were used as test animals. A pair of female and male of the mice was given for the test of each compound. Group T2, T3, T4 and T5 were arranged (10 animals per group) for the test of acute toxicity of the compound prepared in the Example 12. […] Control group (T1) was administered with only a solvent without the compound of the Example 12.
(§2) For comparison, colchicine was injected in the test animals by the same method as described in the above. The group treated with colchicine was composed of 6 mice.
(§3) Taxol produced by Bristol Myers Sqibb Co. was also used for comparison, and the injection and the test of acute toxicity were performed by the same method as described in the above.

ICR mice = assay: in vivo; details: for Death Total: ICR mice, 7 days, deaths/animals
Protocol: as §1, §2, §3

[2] = test system: human lung cancer cell line NCI-H460; assay: Inhibiting effect on tumor growth, NCI-H460 xenografted nude mice
Protocol: Samples for the experiment were stored in a refrigerator all the time. […] The prepared sample is subject to be precipitated, so that tip sonication was performed right before the administration to disperse it well.
7 week-old female S.P.F. BALB/c nude mice, provided by Charles River Co., Japan, were used as test animals. The test animals were adapted in a Hepa-filter room over a week before the test. The temperature was 21±2° C., humidity was 55±5% and 12-hour light and dark cycle was automatically repeated in that lab. Solid feed (Cheiluedang) was sterilized by radioactive rays and drinking water was also sterilized by autoclave. Feed and water were taken by the animal freely. Cancer cell line used in this experiment was NCI-H460 (human lung tumor cell line) provided by Korea Research Institute of Bioscience and Biotechnology.
The tumor cell line, stored in liquid nitrogen, was thawed and cultured in a 37° C., 5% CO2 incubator for a required time. Upon completing the culture, all the cells were recovered and cell concentration of the culture fluid was adjusted using PBS to 3×10^7 cells/ml. The adjusted cell culture solution was injected hypodermically into armpit between right shoulder girdle and chest wall by 0.3 ml per mouse. From the next day of grafting, NCI-H460 xenografted nude mice were administered intraperitoneal everyday with the sample solution by 0.2 ml/20 g of weight, once a day.
After the grafting of tumor cells, the volume of a tumor in each individual was measured in three dimensions by using a vernier caliper, which was represented in the below <Mathematical Formula 2>. Tumor volume=(length×width×height)/2 <Mathematical Formula 2>
Body weight changes of animal were measured three times a week. Each xenografted nude mouse was sacrificed to separate a tumor, which was then weighed.

SK-OV-3 = assay: Cytotoxicity test to cancer cell lines (SRB method), SK-OV-3; assay type: cell-based; details: Homo sapiens, SK-OV-3, 48 h, read-out: Cytotoxicity ED50 SK-OV-3
MCF7 = assay: Cytotoxicity test to cancer cell lines (SRB method), MCF7; details: read-out: Cytotoxicity ED50 MCF-7, MCF-7, 48 hours
SK-MEL-2 = assay: Cytotoxicity test to cancer cell lines (SRB method), SK-MEL-2; assay type: cell-based; details: Homo sapiens, SK-MEL-2, 48 h, read-out: Cytotoxicity ED50 SK-MEL-2
HCT-15 = assay: Cytotoxicity test to cancer cell lines (SRB method), HCT-15; details: Homo sapiens, HCT-15, 48 h, read-out: Cytotoxicity ED50 HCT15
Protocol: as §4, §5, §6

HUVEC cells = assay: Capillary-like tube formation assay; assay type: cell-based; details: HUVEC on matrigel, 24 hours
Protocol: Matrigel used in this experiment was a product of BioCoat. Matrigel was thawed in a refrigerator for 24 hours before use. Thawing matrigel, 96 well plate and yellow tip were put on ice. Then, matrigel was distributed into each well of the plate by 40 μl. The polymerization of the plate was performed in a 37° C. incubator for 30 minutes. Each well of the plate was inoculated with 180 μl of HUVEC cell solution (2×10^4 cells/m;) along with 20 μl of the compound of the Example 12 in serum-free media (0.3, 1,3, 10 and 30 μg/ml), followed by further culture for 24 hours.
Tube formation was observed under a microscope to investigate inhibition activity of angiogenesis.
Fumagilin and doxorubicin were used as a positive control.

[3] = 1 mg/kg intraperitoneal once a day
[4] = 3 mg/kg intraperitoneal once a day
[5] = 10 mg/kg intraperitoneal once a day

COc1cc2c(c(OC)c1OC)-c1ccc(SC)c(=O)cc1[C@@H](NC(=O)c1cc(F)cc(CO[N+](=O)[O-])c1)CC2 [Example 12, 3-fluoro-5-nitrooxymethyl-N-[(7S)-1,2,3-trimethoxy-10-methylsulfanyl-9-oxo-5,6,7,9-tetrahydro-benzo[a]heptalen-7-yl]-benzamide]
Body weight Change Day 1 [1, 3]: 100.0 ± 0.0%
Body weight Change Day 3 [1, 3]: 105.0 ± 1.4%
Body weight Change Day 7 [1, 3]: 104.2 ± 5.3%
Body weight Change Day 9 [1, 3]: 99.6 ± 4.4 %
Body weight Change Day 11 [1, 3]: 97.5 ± 3.6 %
Body weight Change Day 14 [1, 3]: 98.3 ± 3.2 %
Body weight Change Day 1 [1, 4]: 100.0 ± 0.0%
Body weight Change Day 3 [1, 4]: 102.8 ± 2.0%
Body weight Change Day 7 [1, 4]: 101.8 ± 4.2 %
Body weight Change Day 9 [1, 4]: 99.3 ± 3.3 %
Body weight Change Day 11 [1, 4]: 99.1 ± 2.8 %
Body weight Change Day 14 [1, 4]: 94.5 ± 3.9 %
Body weight Change Day 1 [1, 5]: 100.0 ± 0.0%
Body weight Change Day 3 [1, 5]: 103.9 ± 0.9%
Body weight Change Day 7 [1, 5]: 92.2 ± 3.5 %
Body weight Change Day 9 [1, 5]: 89.4 ± 2.0 %
Body weight Change Day 11 [1, 5]: 92.3 ± 2.9 %
Body weight Change Day 14 [1, 5]: 93.4 ± 0%
decrease of the weight of the mouse ([1]; comparing to solvent only or positive control): about 10%
EC50 (A549): 0.05 nM
LD50 (in vivo): 60 mg/kg
Death Total (ICR mice; 30 mg/kg into the abdominal cavity): 0/10
Death Total (ICR mice; 40 mg/kg into the abdominal cavity): 0/10
Death Total (ICR mice; 50 mg/kg into the abdominal cavity): 0/10
Death Total (ICR mice; 60 mg/kg into the abdominal cavity): 0/10
times as weak toxicity as that of colchicine (ICR mice; ratio of LD50): 30 times
Tumor volume Day 0 [2, 3]: 0.0 ± 0.0
Tumor volume Day 4 [2, 3]: 20.7 ± 3.1
Tumor volume Day 7 [2, 3]: 49.2 ± 12.2
Tumor volume Day 9 [2, 3]: 78.1 ± 13.0
Tumor volume Day 11 [2, 3]: 146.5 ± 8.8
Tumor Weight Day 14 [2, 3]: 950.9 ± 174.8 mg
Tumor volume Day 14 [2, 3]: 299.3 ± 41.5
Tumor volume Day 0 [2, 4]: 0.0 ± 0.0
Tumor volume Day 4 [2, 4]: 16.9 ± 5.1
Tumor volume Day 7 [2, 4]: 31.2 ± 11.7
Tumor volume Day 9 [2, 4]: 49.7 ± 15.8
Tumor volume Day 11 [2, 4]: 96.1 ± 26.1
Tumor Weight Day 14 [2, 4]: 714.5 ± 103.8 mg
Tumor volume Day 14 [2, 4]: 206.8 ± 48.0
Tumor volume Day 0 [2, 5]: 0.0 ± 0.0
Tumor volume Day 4 [2, 5]: 16.1 ± 6.7
Tumor volume Day 7 [2, 5]: 24.6 ± 9.8
Tumor volume Day 9 [2, 5]: 35.2 ± 12.9
Tumor volume Day 11 [2, 5]: 69.4 ± 26.9
Tumor Weight Day 14 [2, 5]: 390.9 ± 0 mg
Tumor volume Day 14 [2, 5]: 103.0 ± 0
size and weight of a tumor (in words) ([2]; comparing to solvent only (V.C-1, V.C-2) or positive control (taxol, adriamycin)): remarkably decreased
EC50 (SK-OV-3): 0.27 nM
EC50 (MCF7): 0.03 nM
EC50 (SK-MEL-2): 0.11 nM
EC50 (HCT-15): 0.05 nM
dosage that totally inhibited angiogenesis (HUVEC cells): over 10 μg/ml
dosage with angiogenesis inhibition activity (HUVEC cells; as good effect as fumagilin at 10 μg/ml): over 0.3 μg/ml
